Measurements published in ChEMBL document CHEMBL6153034, “Synthesis of dolutegravir derivatives modified by 1,2,3-triazole structure and their anti-inflammatory activity in LPS-induced BV2 cells” (Bioorg Med Chem Lett, 2025).

Experiments:
BV-2 [1] = assay: Antiinflammatory activity in LPS induced mouse BV-2 cells assessed as NO production at 1 uM by Griess reagent based assay relative to control
[2] = Cytotoxicity against mouse BV-2 cells assessed as cell viability at 10 uM by MTT assay relative to control; assay type: toxicity, cell-based; details: read-out: Activity
BV-2 [3] = assay: Antiinflammatory activity in LPS induced mouse BV-2 cells assessed as NO production at 10 uM by Griess reagent based assay relative to control
[4] = Cytotoxicity against mouse BV-2 cells assessed as cell viability at 1 uM by MTT assay relative to control; assay type: toxicity, cell-based; details: read-out: Activity

SMILES	level, % of control at 1 µM (BV-2 [1])	viability at 10 µM [2]	level, % of control at 10 µM (BV-2 [3])	viability at 1 µM [4]
COc1c2n(cc(C(=O)Nc3cccc(-c4cn(-c5ccc(C(F)(F)F)cc5)nn4)c3)c1=O)C[C@@H]1OCC[C@@H](C)N1C2=O	83.7%	56.3%	48.3%	71.5%
COc1c2n(cc(C(=O)Nc3ccccc3-c3cn(-c4ccc(C(F)(F)F)cc4)nn3)c1=O)C[C@@H]1OCC[C@@H](C)N1C2=O	81%	96.3%	84.7%	104%
COc1c2n(cc(C(=O)Nc3ccccc3-c3cn(-c4ccccc4Cl)nn3)c1=O)C[C@@H]1OCC[C@@H](C)N1C2=O	92.4%	98.3%	65.9%	97.9%
COc1c2n(cc(C(=O)Nc3ccc(-c4cn(-c5ccc(C(F)(F)F)cc5)nn4)cc3)c1=O)C[C@@H]1OCC[C@@H](C)N1C2=O	77.9%	45.2%	76.2%	53.1%
COc1c2n(cc(C(=O)Nc3ccc(-c4cn(-c5ccccc5C(F)(F)F)nn4)cc3)c1=O)C[C@@H]1OCC[C@@H](C)N1C2=O	109%	103%	91.1%	103%
COc1c2n(cc(C(=O)Nc3cccc(-c4cn(-c5ccc(F)cc5)nn4)c3)c1=O)C[C@@H]1OCC[C@@H](C)N1C2=O	76.6%	69.2%	77%	111%
C[C@@H]1C[C@H]2[C@@H]3CCC4=CC(=O)C=C[C@]4(C)[C@@]3(F)[C@@H](O)C[C@]2(C)[C@@]1(O)C(=O)CO [DEXAMETHASONE]			65%	
COc1ccccc1-n1cc(-c2ccccc2NC(=O)c2cn3c(c(OC)c2=O)C(=O)N2[C@H](C)CCO[C@H]2C3)nn1	87.1%	93.5%	70.3%	102%
COc1c2n(cc(C(=O)Nc3cccc(-c4cn(-c5ccccc5I)nn4)c3)c1=O)C[C@H]1OC[C@H](C)N1C2=O	143%	48.7%	120%	99.8%
COc1c2n(cc(C(=O)Nc3cccc(-c4cn(-c5ccc(F)cc5)nn4)c3)c1=O)C[C@H]1OC[C@H](C)N1C2=O	129%	68%	120%	109%
COc1c2n(cc(C(=O)Nc3cccc(-c4cn(-c5ccccc5)nn4)c3)c1=O)C[C@H]1OC[C@H](C)N1C2=O	127%	65.6%	132%	111%
COc1c2n(cc(C(=O)Nc3cccc(-c4cn(-c5ccccc5F)nn4)c3)c1=O)C[C@@H]1OCC[C@@H](C)N1C2=O	91.7%	68.6%	53.7%	103%
COc1c2n(cc(C(=O)Nc3ccc(-c4cn(-c5ccccc5F)nn4)cc3)c1=O)C[C@@H]1OCC[C@@H](C)N1C2=O	98.5%	83%	87.2%	101%
COc1c2n(cc(C(=O)Nc3ccccc3-c3cn(-c4c(C)cc(C)cc4C)nn3)c1=O)C[C@@H]1OCC[C@@H](C)N1C2=O	81.4%	113%	59.1%	107%
COc1c2n(cc(C(=O)Nc3ccc(-c4cn(-c5ccc(F)cc5)nn4)cc3)c1=O)C[C@@H]1OCC[C@@H](C)N1C2=O	91.9%	73.3%	82.1%	103%
COc1ccccc1-n1cc(-c2ccc(NC(=O)c3cn4c(c(OC)c3=O)C(=O)N3[C@H](C)CCO[C@H]3C4)cc2)nn1	108%	81.6%	107%	108%
C[C@@H]1CCO[C@H]2Cn3cc(C(=O)NCc4ccc(F)cc4F)c(=O)c(O)c3C(=O)N12 [DOLUTEGRAVIR]	96%	77.6%	51.2%	97.5%
COc1c2n(cc(C(=O)Nc3ccc(-c4cn(-c5ccccc5Cl)nn4)cc3)c1=O)C[C@@H]1OCC[C@@H](C)N1C2=O	98.8%	102%	79.6%	100%
COc1c2n(cc(C(=O)Nc3cccc(-c4cn(-c5ccc(C(F)(F)F)cc5)nn4)c3)c1=O)C[C@H]1OC[C@H](C)N1C2=O	102%	63.3%	101%	108%

SMILES	level, % of control at 1 µM (BV-2 [1])	viability at 10 µM [2]	level, % of control at 10 µM (BV-2 [3])	viability at 1 µM [4]
COc1c2n(cc(C(=O)Nc3cccc(-c4cn(-c5ccccc5)nn4)c3)c1=O)C[C@@H]1OCC[C@@H](C)N1C2=O	78.6%	62.3%	77.3%	104%
COc1c2n(cc(C(=O)Nc3ccc(-c4cn(-c5cc(C(F)(F)F)cc(C(F)(F)F)c5)nn4)cc3)c1=O)C[C@@H]1OCC[C@@H](C)N1C2=O	105%	71.1%	99.6%	105%
COc1c2n(cc(C(=O)Nc3cccc(-c4cn(-c5cc(C(F)(F)F)ccc5C(F)(F)F)nn4)c3)c1=O)C[C@H]1OC[C@H](C)N1C2=O	118%	71.1%	109%	91.9%
COc1c2n(cc(C(=O)Nc3ccc(-c4cn(-c5ccccc5)nn4)cc3)c1=O)C[C@@H]1OCC[C@@H](C)N1C2=O	88.8%	70.2%	91.4%	104%
CCc1ccccc1-n1cc(-c2cccc(NC(=O)c3cn4c(c(OC)c3=O)C(=O)N3[C@@H](C)CO[C@@H]3C4)c2)nn1	107%	46.1%	102%	99.3%
CCc1ccccc1-n1cc(-c2ccc(NC(=O)c3cn4c(c(OC)c3=O)C(=O)N3[C@H](C)CCO[C@H]3C4)cc2)nn1	118%	123%	60.2%	110%
COc1ccccc1-n1cc(-c2cccc(NC(=O)c3cn4c(c(OC)c3=O)C(=O)N3[C@@H](C)CO[C@@H]3C4)c2)nn1	96.5%	50.4%	68%	94.1%
COc1c2n(cc(C(=O)Nc3cccc(-c4cn(-c5cc(C(F)(F)F)ccc5C(F)(F)F)nn4)c3)c1=O)C[C@@H]1OCC[C@@H](C)N1C2=O	80.8%	42%	43.6%	104%
COc1c2n(cc(C(=O)Nc3ccccc3-c3cn(-c4cc(C(F)(F)F)cc(C(F)(F)F)c4)nn3)c1=O)C[C@@H]1OCC[C@@H](C)N1C2=O	86.6%	112%	73%	104%
COc1c2n(cc(C(=O)Nc3cccc(-c4cn(-c5ccccc5F)nn4)c3)c1=O)C[C@H]1OC[C@H](C)N1C2=O	97.9%	63.8%	88.7%	91.9%
COc1c2n(cc(C(=O)Nc3cccc(-c4cn(-c5ccccc5Cl)nn4)c3)c1=O)C[C@H]1OC[C@H](C)N1C2=O	106%	43.6%	59.4%	90.7%
COc1c2n(cc(C(=O)Nc3ccc(-c4cn(-c5c(C)cc(C)cc5C)nn4)cc3)c1=O)C[C@@H]1OCC[C@@H](C)N1C2=O	98.9%	114%	78.6%	106%
COc1c2n(cc(C(=O)Nc3ccc(-c4cn(-c5cccc(C(F)(F)F)c5)nn4)cc3)c1=O)C[C@@H]1OCC[C@@H](C)N1C2=O	96.8%	73.8%	90.5%	105%
COc1c2n(cc(C(=O)Nc3ccccc3-c3cn(-c4ccccc4I)nn3)c1=O)C[C@@H]1OCC[C@@H](C)N1C2=O	107%	65.8%	56.3%	96.7%
COc1c2n(cc(C(=O)Nc3cccc(-c4cn(-c5cccc(C(F)(F)F)c5)nn4)c3)c1=O)C[C@@H]1OCC[C@@H](C)N1C2=O	99.2%	16.2%	2.3%	47.1%
COc1c2n(cc(C(=O)Nc3cccc(-c4cn(-c5ccccc5C(F)(F)F)nn4)c3)c1=O)C[C@@H]1OCC[C@@H](C)N1C2=O	91.5%	22.8%	3.88%	60.6%
COc1c2n(cc(C(=O)Nc3ccc(-c4cn(-c5ccccc5I)nn4)cc3)c1=O)C[C@@H]1OCC[C@@H](C)N1C2=O	98.2%	98.2%	106%	110%
COc1c2n(cc(C(=O)Nc3cccc(-c4cn(-c5cc(C(F)(F)F)cc(C(F)(F)F)c5)nn4)c3)c1=O)C[C@H]1OC[C@H](C)N1C2=O	114%	69.6%	97.9%	97.1%
COc1c2n(cc(C(=O)Nc3cccc(-c4cn(-c5ccccc5C(F)(F)F)nn4)c3)c1=O)C[C@H]1OC[C@H](C)N1C2=O	103%	42.9%	82.3%	97.4%
